# Activity calls are given as the source filed them.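 How the source made its calls: active means caspase luminescence falls with dose and the half-maximal concentration AC50 from the fitted curve is at or below a set limit; inconclusive means flat fit at 30 to 70% signal loss, or invalid fit; inactive means AC50 above the limit, or signal rises instead.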
# Tested on: INS-1E cytokine-induced caspase-3/7, Caspase-Glo luminescence, 48 h
# Experiment: inhibitors of cytokine-induced caspase-3/7 activity, dose response, orthogonal assay for beta-cell apoptosis protection project, INS-1E rat cells, luminescence (AID 463206)
row,Structure (SMILES),AC50
1,COc1cccc(/C=N/NC(=O)CNC(=O)c2cccs2)c1O,> 26 µM (inactive)
2,CCn1c(=O)c(C(=O)Nc2ccccn2)c(O)c2ccccc21,> 26 µM (inactive)
3,O=C(C#Cc1ccccc1)Nc1cccc(F)c1,> 26 µM (inactive)
4,c1ccc2c(NCCCN3CCOCC3)c3ccccc3nc2c1,7.15 µM
5,CN(C)S(=O)(=O)c1cccc(N=C2NN=C(c3ccccc3)CS2)c1,> 26 µM (inactive)
6,O=C(NN=C(c1ccccc1)c1ccccn1)c1ccccc1,> 26 µM (inactive)
7,CCOC(=O)C(C(C)=O)c1c(Br)c(O)c(O)c2c(C(=O)c3ccc(C)cc3)coc12 (stereo unspecified),> 26 µM (inactive)
8,CC(C)c1ccc(COc2ccc(C(=O)N3CCOCC3)cc2)cc1,> 26 µM (inactive)
9,COc1cccc(N2CCN(c3ncnc4c3[nH]c3ccc(F)cc34)CC2C)c1 (stereo unspecified),> 26 µM (inactive)
10,COCCCNC(=O)Cn1nnc(-c2ccc(NC(=O)c3cccnc3)cc2)n1,> 26 µM (inactive)
11,CS(=O)(=O)N(CC(=O)Nc1ccc(CC#N)cc1)c1ccc(C23CC4CC(CC(C4)C2)C3)cc1,> 26 µM (inactive)
12,O=C1/C(=N\S(=O)(=O)c2cccs2)C([n+]2cccc(Cc3ccccc3)c2)=C([O-])c2ccccc21,> 26 µM (inactive)
13,C#CCOCCOCCOCCNc1nc(N2CCN(C(=O)CCCCCCCCCCNC(=O)Cn3cc(C[C@@H](C)O)nn3)CC2)nc(N2CCN(C(=O)CCCCCCCCCCNC(=O)[C@@H]([C@H](C)CC)n3cc(CCCCCN)nn3)CC2)n1,> 26 µM (inactive)
14,O=C(Nc1cccc(NC(=O)c2cc([N+](=O)[O-])ccc2Cl)n1)c1cc([N+](=O)[O-])ccc1Cl,3.73 µM
15,COc1ccccc1CNc1ncnc2sccc12,> 26 µM (inactive)
16,FC(F)(F)c1nnc2c(Sc3ccccc3)nc3ccc(Cl)cc3n12,> 26 µM (inactive)
17,CC1=CC2/C=C(\C)CCC(O)C(O)/C=C/C(=O)C23C(=O)NC(CC(C)C)C3C1C (stereo unspecified),> 26 µM (inactive)
18,N#Cc1ccc(-c2ccc(Cl)cc2)nc1SCC(=O)c1cccc(Cl)c1,> 26 µM (inactive)
19,Nc1c(Cl)ncnc1N/N=C/c1ccc2ccccc2n1,> 26 µM (inactive)
20,Cc1nnc2ccc(Oc3ccc(-c4ccccc4)cc3)nn12,> 26 µM (inactive)
21,CCCCNC1=CC(=O)C(=O)c2ccccc21,> 26 µM (inactive)
22,CCN(CC)S(=O)(=O)c1ccc(N/N=C/c2cc(OC)ccc2O)nc1,> 26 µM (inactive)
23,Cc1cccc(Oc2cc(NC(=O)c3ccccc3)cc([N+](=O)[O-])c2)c1,> 26 µM (inactive)

row,Structure (SMILES),AC50
1,Cc1ccc(-c2cc(-c3ccccc3)cc(-c3ccccc3)[n+]2-c2ccccc2)cc1,> 26 µM (inactive)
2,N#Cc1c(N2CCCCC2)nc(N2CCCCC2)c2c1CCN(Cc1ccccc1)C2,> 26 µM (inactive)
3,Cc1ccc(-c2sc(-c3ccccc3)nc2CC(=O)Nc2ccccc2F)cc1,> 26 µM (inactive)
4,Cc1cc(C)c(S(=O)(=O)/N=C2/C=C(Sc3ncn[nH]3)C(=O)c3ccccc32)cc1C,> 26 µM (inactive)
5,Cc1ccc(NC(=O)c2nc(S(=O)(=O)Cc3ccccc3)ncc2Cl)cc1,> 26 µM (inactive)
6,CC[C@H](C)[C@@H](C(=O)NCCCCCCCCCCC(=O)N1CCN(C(=O)OC(C)(C)C)CC1)n1cc(CCCCCNC(=O)OC(C)(C)C)nn1,> 26 µM (inactive)
7,CCOc1ccc(-n2c(-c3ccccc3)c[n+]3c2CCCCC3)cc1,> 26 µM (inactive)
8,COc1ccc(Nc2ccc3c(c2)=NC2(CCCCC2)[N+]=3[O-])cc1,> 26 µM (inactive)
9,CCCCOCCCNc1ncnc2c1[nH]c1ccccc12,> 26 µM (inactive)
10,CCCC[n+]1ccn(C2=C([O-])c3ccccc3C(=O)/C2=N\S(=O)(=O)c2ccc(Br)cc2)c1,> 26 µM (inactive)
11,O=C(CCCc1nc(-c2ccc(Cl)cc2)no1)NC1CCCC1,> 12 µM (inactive)
12,Cc1ccc(S(=O)(=O)/N=C2/C=C(Sc3ncn[nH]3)C(=O)c3ccccc32)cc1,> 26 µM (inactive)
13,COc1ccc(-c2nn(-c3ccccc3)cc2/C=N/N2C(=O)CSC2=S)cc1,> 26 µM (inactive)
14,CCC(CO)[n+]1c(C)cc(/C=C2\Sc3ccccc3N2Cc2ccccc2)cc1C (stereo unspecified),> 26 µM (inactive)
15,COc1ccc(-c2cn(Cc3ccc(C(=O)c4ccccc4)cc3)nn2)cc1,> 26 µM (inactive)
16,Cc1ccc(-c2c[n+]3c(n2-c2ccccc2)CCC3)cc1,> 26 µM (inactive)
17,NC(N)=N/N=C/c1cn(-c2ccccc2)nc1-c1cccs1,> 26 µM (inactive)
18,CCCNC1=C(N(C(C)=O)c2cccc(F)c2)C(=O)c2ccccc2C1=O,> 26 µM (inactive)
19,O=C(CNC(=O)c1ccccc1)N/N=C/c1cc(Br)ccc1O,> 26 µM (inactive)
20,CC(C)(C)OC(=O)NCc1ccc(NC(=O)c2nc[nH]c2C(=O)NCCCCNC(=O)c2[nH]cnc2C(=O)Nc2ccc(CNC(=O)OC(C)(C)C)cc2)cc1,> 26 µM (inactive)
21,CCCCCCCCCCOC(=O)Cn1c(COc2cccc(OC)c2)[n+](C)c2ccccc21,> 26 µM (inactive)
22,Oc1[nH]c2ccc(Br)cc2c1N=NC(=S)N1CCOCC1,> 26 µM (inactive)
23,Cc1ccccc1N1CCN(Cc2c[nH]c3ccccc23)CC1,> 26 µM (inactive)

row,Structure (SMILES),AC50
1,N#Cc1c(Nc2ccccc2)sc(C(=O)c2ccc(F)cc2)c1N,> 26 µM (inactive)
2,FC(F)(F)c1ccccc1NC(=S)N1CCN(Cc2ccc3c(c2)OCO3)CC1,> 26 µM (inactive)
3,O=S(=O)(Nc1cc(Sc2cccc3cccnc23)c(O)c2ccccc12)c1ccc(F)cc1,> 26 µM (inactive)
4,Cc1ccc(-c2nn(-c3ccccc3)cc2/C=N/NC(=O)c2ccc3c(c2)OCO3)cc1,> 26 µM (inactive)
5,Cc1ccc(O)c(NC(=S)NC(=O)c2ccc(-c3ccc(Cl)cc3)o2)c1,> 26 µM (inactive)
6,COc1ccc2nc(C)cc(SCC(=O)N/N=C/c3ccc(O)cc3O)c2c1,> 26 µM (inactive)
7,CC1(C)C(C=C(Cl)Cl)C1C(=O)Nc1ccc([N+](=O)[O-])cc1 (stereo unspecified),> 26 µM (inactive)
8,CC(C)(C)C1CCC2(CC1)C(C#N)=C(SCC(=O)NC1CCCCC1)NC(=O)C2C#N (stereo unspecified),> 26 µM (inactive)
9,CCOC(=O)c1cnc2ccc(OCC)cc2c1N1CCN(c2ccccc2)CC1,> 12 µM (inactive)
10,CN(C1=C(NC(=O)c2ccccc2)C(=O)c2ccccc2C1=O)C1CCS(=O)(=O)C1 (stereo unspecified),> 26 µM (inactive)
11,COc1ccc(CCNc2cc(N3CCN(C(=O)c4ccccc4OC)CC3)ccc2[N+](=O)[O-])cc1OC,> 26 µM (inactive)
12,Cc1cccc(-n2c(C)cc(/C=N/n3cnnc3)c2C)c1,> 26 µM (inactive)
13,CCOc1ccc(/C=N/Nc2ccc(Cl)nn2)c(O)c1,> 26 µM (inactive)
14,CC1=NN(c2ccc(C)c(C)c2)C(=O)/C1=C\C=C\c1ccc([N+](=O)[O-])o1,> 26 µM (inactive)
15,C#CC[N+](C)(C)CCCCCCCCCCCC,> 26 µM (inactive)
16,CCN1C/C(=C/c2cccc([N+](=O)[O-])c2)C(=O)/C(=C/c2cccc([N+](=O)[O-])c2)C1,> 26 µM (inactive)
17,Cc1cc(N/N=C\c2ccc(Br)cc2)nc(-n2nc(C)cc2C)n1,> 26 µM (inactive)
18,CCCCCCCCCC[N+](C)(C)CC/C=C1/c2ccccc2Sc2ccc(Cl)cc21,> 26 µM (inactive)
19,Cc1cc(C)c2nc(NNC(=O)c3ccc(S(=O)(=O)N4CCc5ccccc5C4)cc3)sc2c1,> 26 µM (inactive)
20,Cc1ccc(S(=O)(=O)Nc2ccccc2C(=O)Nc2nc(-c3ccc(F)cc3)cs2)cc1,> 26 µM (inactive)
21,CCC(=O)NC(c1ccc(OC)cc1)c1cc(Cl)c2cccnc2c1O (stereo unspecified),> 26 µM (inactive)
22,COC1=CC(=O)[C@]2(C=C1OC)OC[C@@H]1Oc3c(ccc4c3C=CC(C)(C)O4)C(=O)[C@@H]12,> 26 µM (inactive)
23,O=C(OCCOc1cccc(Cl)c1)c1cc(S(=O)(=O)N2CCCCC2)ccc1N1CCOCC1,> 26 µM (inactive)

row,Structure (SMILES),AC50
1,COc1ccc(C(=O)N/N=C/c2ccccc2OC(=O)c2ccccc2)cc1,> 26 µM (inactive)
2,CCCCn1c(=N)n(CC(=O)c2ccc(Br)s2)c2ccccc21,> 26 µM (inactive)
3,CCOC(=O)N1CCN(c2ncnc3c2[nH]c2ccc(F)cc23)CC1,> 26 µM (inactive)
4,CC(=O)NC(c1cc(Cl)c2cccnc2c1O)C(C)C (stereo unspecified),> 26 µM (inactive)
5,Oc1ccc(N=Nc2ccccc2C(F)(F)F)c2cccnc12,> 26 µM (inactive)
6,CN(C)C(=O)c1ccc(NC(=O)c2cccnc2)cc1,> 26 µM (inactive)
7,Cn1ncnc2c(=O)n(C)c(=O)nc1-2,> 26 µM (inactive)
8,O=C(c1ccccc1)C(CCC(CN1CCOCC1)C(=O)c1ccccc1)CN1CCOCC1 (stereo unspecified),> 26 µM (inactive)
9,N=c1c2c(n(Cc3ccc(Cl)c(Cl)c3)c3c1CCC3)CCCC2,> 26 µM (inactive)
10,CCOC(=O)[C@@H]1[C@H]2COc3cc(OC)ccc3[C@H]2N2C(=O)N(c3ccc(C(F)(F)F)cc3)C(=O)[C@]12C,> 26 µM (inactive)
11,COC(=O)C1CCCCN1C(=O)c1cc(COc2cccc3cnccc23)on1 (stereo unspecified),> 26 µM (inactive)
12,CC(NCC(O)COCCC12CC3CC(CC(C3)C1)C2)c1ccccc1 (stereo unspecified),> 26 µM (inactive)
13,CCN(CC)c1ccc(/C=N/NC(=O)CNC(=O)C2COc3ccccc3O2)c(O)c1 (stereo unspecified),> 26 µM (inactive)
14,CC1(C)C[C@@H]2C[C@@](C)(CN2C(=O)c2cc(COc3cccc(C(F)(F)F)c3)on2)C1,> 12 µM (inactive)
15,COc1nc(Nc2nc3ccccc3c(=O)[nH]2)nc2ccc(C)cc12,> 26 µM (inactive)
16,CNC[C@@H](Cc1ccccc1)NC[C@@H](CC1CCCCC1)NCCCc1ccccc1,> 26 µM (inactive)
17,O=C(Oc1c(Cl)cc(Cl)c2cccnc12)c1cccs1,> 12 µM (inactive)
18,Cc1ccccc1Oc1cc(NC(=O)CCCn2nc(C)c([N+](=O)[O-])c2C)cc([N+](=O)[O-])c1,> 26 µM (inactive)
19,c1ccc(Nc2nc(NCc3ccco3)c3ccccc3n2)cc1,23.7 µM
20,CCN(CC)S(=O)(=O)c1ccc(N2CCN(c3ccccc3OC)CC2)c(N)c1,> 26 µM (inactive)
21,CC(C)Cn1c(SCC(=O)N2CCc3ccccc3C2)nc2cc(Cl)ccc2c1=O,> 26 µM (inactive)
22,c1csc(-c2csc3ncnc(NCCCN4CCOCC4)c23)c1,> 26 µM (inactive)

# Source: PubChem BioAssay AID463206 (Broad Institute, 2010)
